Source: PMC12265377, “CC48 a new CB2R agonist/FAAH inhibitor dual drug blocks gastric cancer progression and overcomes paclitaxel resistance” (Journal of Experimental & Clinical Cancer Research : CR, 2025)

Legend:
Format in all cases: cell-based, human
HGC27-R cells [1] = test: Muse Ki67 cell proliferation assay
Source text: (§1) After the specified drug treatments, the cells were processed with the Muse Ki67 cell proliferation kit, which identified actively proliferating cells based on the expression of Ki67, a nuclear protein present in the active phases of the cell cycle (G1, S, G2, and M phases) and absent in the resting G0 phase. The Muse Ki67 Proliferation Assay was used with the Guava Muse Cell Analyzer according to the manufacturer’s instructions (Luminex Corporation, Austin, USA). Briefly, the cells were stained after fixation and permeabilization procedures, using Hu Ki67 or Hu IgG1 control fluorochrome-conjugated antibodies to distinguish Ki67(+) or Ki67(-) cells, respectively. The software provided the percentage of both Ki67(+) and Ki67(-) cells.

HGC27-S cells [2] = test: Muse Ki67 cell proliferation assay; conditions: HGC27-S, 48 h
Source text: as §1

NCI-N87 cells [3] = test: Muse Ki67 cell proliferation assay; conditions: NCI-N87, single treatment (10 µM compound; 2 nM PTX); control 78.2%
Source text: as §1

HGC27-R cells [4] = test: Muse caspase 3/7 activation assay; conditions: 48 h
Source text: (§2) After the specified drug treatments, the cells were processed using the Muse Annexin V/Dead Cell Assay Kit (Luminex Corporation, Austin, USA) for quantitative analysis of live, early/ late apoptotic, and dead cells on a Muse Cell Analyzer. Briefly, the assay utilized Annexin V to detect phosphatidylserine on the external membrane of apoptotic cells. The fluorescent signal emitted by dye-conjugated antibodies was detected by flow cytometry technology (Muse Cell Analyzer, Luminex Corporation, Austin, USA). 7-Amino-Actinomycin D (7-AAD) dead cell marker was also used. The cells were then analyzed according to the user’s guide. […] After 48 h treatments the cells were processed according to the user’s guide and analyzed with the Muse caspase-3/7 kit (Millipore).The assay provides the relative percentage of living, early/late apoptotic or dead cells.

HGC27-S cells [5] = test: Muse caspase 3/7 activation assay; conditions: 48 h
Source text: as §2

NCI-N87 cells [6] = test: Muse caspase 3/7 activation assay
Source text: as §2

[7] = representative flow cytometry chart, 48 h, 10 µM CC48, PTX, single or combined as labelled
[8] = representative flow cytometry chart, 10 µM CC48, PTX, single or combined as labelled
[9] = single treatment, untreated 6.6%

SMILES: CC(=O)O[C@H]1C(=O)[C@@]2(C)[C@H]([C@H](OC(=O)c3ccccc3)[C@]3(O)C[C@H](OC(=O)[C@H](O)[C@@H](NC(=O)c4ccccc4)c4ccccc4)C(C)=C1C3(C)C)[C@]1(OC(C)=O)CO[C@@H]1C[C@@H]2O [PTX, Paclitaxel]
- Ki67(+) cells (HGC27-R cells [1]; [7]): 80.50%
- Ki67(-) cells (HGC27-R cells [1]; [7]): 19.50%
- percentage of Ki67+ cells (HGC27-R cells [1]; single treatment, control 82.95%): 80.5%
- percentage of Ki67+ cells (HGC27-S cells [2]; single treatment (10 µM CC48; 4 nM PTX), control 80.50%): 58.1%
- Ki67(+) cells (HGC27-S cells [2]; [8]): 58.10%
- Ki67(-) cells (HGC27-S cells [2]; [8]): 41.90%
- percentage of Ki67+ cells (NCI-N87 cells [3]): 68.1%
- apoptotic cells (caspase 3/7 activation) (HGC27-R cells [4]; single treatment (4 nM PTX, 6 µM AM630, 10 µM others), untreated 18.9%): 21.4%
- dead cells (HGC27-R cells [4]; [9]): 7.70%
- apoptotic cells (caspase 3/7 activation) (HGC27-S cells [5]; single treatment (4 nM PTX, 6 µM AM630, 10 µM others), untreated 13.05%): 26.2%
- dead cells (HGC27-S cells [5]; [9]): 23.7%
- cells with activated caspase 3/7 (NCI-N87 cells [6]; NCI-N87, single treatment (2 nM PTX, 6 µM AM630, 10 µM others), untreated 6.35%): 14.6%
- dead cells (NCI-N87 cells [6]; NCI-N87, single treatment, control 5.8% / 5.6%): 8.1%
